According to patent US20260116920A1, “HUMAN TRANSFERRIN RECEPTOR BINDING PEPTIDE” (PEPTIDREAM INC., priority 2021, published 2026):
Like-named read-outs stand apart in the source and are kept apart here. Starred links: 1 amine or outer side, 2 acyl side, 3 side chain; linkers in the order of their positions; H or OH if unused. Positions of bridges follow the written chain, without caps; N, C: chain ends. Non-standard residues stand in square brackets, D forms with d. Residues, ends and D or L forms follow the SMILES beside them. *: point of attachment. NMePhe(4-COOH) = CN[C@@H](Cc1ccc(C(=O)O)cc1)C(=O)O; X1 = O=C([C@H](Cc1cccc(C(=O)[*:3])c1)N[*:1])[*:2]; Trp(7-aza) = N[C@@H](Cc1c[nH]c2ncccc12)C(=O)O; NH(CH2CH2O)8Me = COCCOCCOCCOCCOCCOCCOCCOCCN*; NMePhe(3-Cl) = CN[C@@H](Cc1cccc(Cl)c1)C(=O)O; X2 = COCCOCCOCCOCCOCCOCCOCCOCCNC(=O)C*; PEG4 = NCCOCCOCCOCCOCCC(=O)O

Target: T1, human transferrin receptor (hTfR) (Homo sapiens, UniProt P02786)
T1 construct: made in house
T1 sequence (P02786 89-760 limits assumed): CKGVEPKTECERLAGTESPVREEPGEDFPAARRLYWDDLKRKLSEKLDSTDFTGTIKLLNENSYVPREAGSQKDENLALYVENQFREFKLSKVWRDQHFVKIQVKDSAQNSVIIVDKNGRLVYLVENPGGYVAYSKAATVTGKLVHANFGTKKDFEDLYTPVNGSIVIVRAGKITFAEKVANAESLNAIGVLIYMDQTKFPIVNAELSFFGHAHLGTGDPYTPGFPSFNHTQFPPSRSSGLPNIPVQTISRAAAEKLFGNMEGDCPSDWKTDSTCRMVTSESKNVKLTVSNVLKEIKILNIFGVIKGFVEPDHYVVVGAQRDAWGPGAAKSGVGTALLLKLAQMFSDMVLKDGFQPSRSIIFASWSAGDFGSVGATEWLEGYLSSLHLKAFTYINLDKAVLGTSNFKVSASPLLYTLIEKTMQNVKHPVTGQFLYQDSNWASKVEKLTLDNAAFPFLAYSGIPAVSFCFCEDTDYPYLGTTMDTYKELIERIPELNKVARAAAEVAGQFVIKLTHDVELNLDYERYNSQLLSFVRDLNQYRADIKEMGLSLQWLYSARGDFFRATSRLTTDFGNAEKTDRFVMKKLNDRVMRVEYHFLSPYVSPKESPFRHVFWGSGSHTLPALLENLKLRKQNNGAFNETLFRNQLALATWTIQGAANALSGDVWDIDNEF
Test: Evaluation of molecular interaction between transferrin receptor (hTfR) and peptide using surface plasmon resonance (SPR)
Assay type: binding
How it was run: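 Recombinant human TfR dimer (0.5 μM) was captured on a Ni-charged NTA chip and amine-coupled with EDC/NHS, then ethanolamine-capped. Peptides at 5–100 nM in HEPES pH 8.0 buffer with 150 mM NaCl, 0.05% Tween 20, 0.1% BSA and 1.0% DMSO were run by single-cycle kinetics; KD came from least-squares curve fitting.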

[1] = peptide with linker, surface plasmon resonance, read-out: SPR (KD class for binding to hTfR)
[2] = surface plasmon resonance, binding to hTfR, KD class symbol, read-out: SPR (KD value)

CC[C@H](C)[C@@H]1NC(=O)[C@H](Cc2ccc(OCC(=O)O)cc2)NC(=O)[C@H](Cc2ccc(O)cc2)NC(=O)[C@H](CC(N)=O)NC(=O)[C@H](Cc2cn(CC(=O)O)c3ccccc23)NC(=O)[C@H](C(C)C)NC(=O)[C@H](Cc2cccc(Cl)c2)N(C)C(=O)[C@H](C(C)C)NC(=O)[C@H](C)NC(=O)CSC[C@@H](C(=O)NCCOCCOCCOCCOCCC(N)=O)NC(=O)[C@H](Cc2ccc(O)cc2)N(C)C(=O)[C@H](Cc2ccncc2)NC(=O)[C@H](CCCNC(=N)N)NC(=O)[C@H](CCC(=O)NCCOCCOCCOCCOCCOCCOCCOCCOC)NC(=O)[C@H]([C@@H](C)CC)NC1=O [compound 231]
Kd [1]: 1 to 100 nM

CC[C@H](C)[C@@H]1NC(=O)[C@H](Cc2ccc(OC)cc2)NC(=O)[C@H](Cc2ccc(O)cc2)NC(=O)[C@H](CC(N)=O)NC(=O)[C@H](Cc2cn(CC(=O)O)c3ccccc23)NC(=O)[C@H](C(C)C)NC(=O)[C@H](Cc2cccc(Cl)c2)N(C)C(=O)[C@H](C(C)C)NC(=O)[C@H](C)NC(=O)CSC[C@@H](C(=O)NCCOCCOCCOCCOCCC(N)=O)NC(=O)[C@H](Cc2ccc(O)cc2)N(C)C(=O)[C@H](Cc2ccncc2)NC(=O)[C@H](CCCNC(=N)N)NC(=O)[C@H](CCCNC(=N)N)NC(=O)[C@H]([C@@H](C)CC)NC1=O [894_0335]
Kd (KD class for binding to hTfR by SPR, peptide with the linker shown in the same line, 'low signal indicates no activity', read-out: SPR): 1 to 100 nM

CC[C@H](C)[C@@H]1NC(=O)[C@H](Cc2ccc(O)cc2)NC(=O)[C@H](Cc2ccc(O)cc2)NC(=O)[C@H](CC(N)=O)NC(=O)[C@H](Cc2c[nH]c3ccccc23)N(C)C(=O)[C@H](C(C)C)NC(=O)[C@H](Cc2ccc(F)cc2)N(C)C(=O)[C@H](C(C)C)NC(=O)[C@H](C)NC(=O)CSC[C@@H](C(N)=O)NC(=O)[C@H](Cc2ccc(O)cc2)N(C)C(=O)[C@H](Cc2ccccc2)NC(=O)[C@H](CCCCNC(=O)CCOCCOCCOCCOC)NC(=O)[C@H](CCCNC(=N)N)N(C)C(=O)[C@H]([C@@H](C)CC)NC1=O [compound 7]
Kd [2]: 1 to 100 nM

CC[C@H](C)[C@@H]1NC(=O)[C@H](Cc2ccc(OCC(=O)NCCOCCOCCOCCOCCOCCOCCOCCOC)cc2)NC(=O)[C@H](Cc2ccc(O)cc2)NC(=O)[C@H](CC(N)=O)NC(=O)[C@H](Cc2c[nH]c3ncccc23)NC(=O)[C@H](C(C)C)NC(=O)[C@H](Cc2cccc(Cl)c2)N(C)C(=O)[C@H](C(C)C)NC(=O)[C@H](C)NC(=O)CSC[C@@H](C(=O)NCCOCCOCCOCCOCCC(N)=O)NC(=O)[C@H](Cc2ccc(C(=O)NCCOCCOCCOCCOCCOCCOCCOCCOC)cc2)N(C)C(=O)[C@H](Cc2cccc(C(=O)NCCOCCOCCOCCOCCOCCOCCOCCOC)c2)NC(=O)[C@H](CCC(N)=O)NC(=O)[C@H](CCC(N)=O)NC(=O)[C@H]([C@@H](C)CC)NC1=O [compound 226] ({CH2CO}-AV[NMePhe(3-Cl)]V[Trp(7-aza)]NYY(X2)IIQQ[X1](NH(CH2CH2O)8Me)[NMePhe(4-COOH)](NH(CH2CH2O)8Me)C[PEG4]-NH2; thioether N-15)
Kd [1]: 1 to 100 nM

CC[C@H](C)[C@@H]1NC(=O)[C@H](Cc2ccc(O)cc2)NC(=O)[C@H](Cc2ccc(O)cc2)NC(=O)[C@H](CC(N)=O)NC(=O)[C@H](Cc2c[nH]c3ccc(Cl)cc23)NC(=O)[C@H](C(C)C)NC(=O)[C@H](Cc2ccc(F)cc2)N(C)C(=O)[C@H](C(C)C)NC(=O)[C@H](C)NC(=O)CSC[C@@H](C(=O)NCCOCCOCCOCCOCCC(N)=O)NC(=O)[C@H](Cc2ccc(O)cc2)N(C)C(=O)[C@H](Cc2ccccc2)NC(=O)[C@@H](CCCNC(=N)N)NC(=O)[C@H](CCCNC(=N)N)NC(=O)[C@H]([C@@H](C)CC)NC1=O [compound 24]
Kd [2]: 1 to 100 nM

CC[C@H](C)[C@@H]1NC(=O)[C@H](Cc2ccc(OC)cc2)NC(=O)[C@H](Cc2ccc(N)nc2)NC(=O)[C@H](CC(N)=O)NC(=O)[C@H](Cc2c[nH]c3ccccc23)NC(=O)[C@H](C(C)C)NC(=O)[C@H](Cc2cccc(Cl)c2)N(C)C(=O)[C@H](C(C)C)NC(=O)[C@H](C)NC(=O)CSC[C@@H](C(=O)NCCOCCOCCOCCOCCC(N)=O)NC(=O)[C@H](Cc2ccc(O)cc2)N(C)C(=O)[C@H](Cc2ccncc2)NC(=O)[C@H](CCCNC(=N)N)NC(=O)[C@H](CCCNC(=N)N)NC(=O)[C@H]([C@@H](C)CC)NC1=O [compound 53]
Kd [2]: 1 to 100 nM

CC[C@H](C)[C@@H]1NC(=O)[C@H](Cc2ccc(O)cc2)NC(=O)[C@H](Cc2ccc(O)cc2)NC(=O)[C@H](CC(N)=O)NC(=O)[C@H](Cc2c[nH]c3ccccc23)N(C)C(=O)[C@H](C(C)C)NC(=O)[C@H](Cc2ccc(F)cc2)N(C)C(=O)[C@H](C(C)C)NC(=O)[C@H](C)NC(=O)CSC[C@@H](C(=O)NCCOCCOCCOCCOCCC(N)=O)NC(=O)[C@H](Cc2ccc(O)cc2)N(C)C(=O)[C@H](Cc2ccccc2)NC(=O)[C@@H](CCCNC(=N)N)NC(=O)[C@H](CCCNC(=N)N)NC(=O)[C@H]([C@@H](C)CC)NC1=O [compound 28]
Kd [2]: 1 to 100 nM
